In US12162858B2, “Quinoline derivatives as inhibitors of AXL/MER RTK and CSF1R” (QURIENT CO., LTD., priority 2018, dated 2024):
Where two headings read alike, the source gives them in different places.

Experiments:
Axl = target: T1, Axl (Homo sapiens, UniProt P30530); experiment: LanthaScreen Eu kinase binding assay for Axl
T1 sequence (P30530 26-894): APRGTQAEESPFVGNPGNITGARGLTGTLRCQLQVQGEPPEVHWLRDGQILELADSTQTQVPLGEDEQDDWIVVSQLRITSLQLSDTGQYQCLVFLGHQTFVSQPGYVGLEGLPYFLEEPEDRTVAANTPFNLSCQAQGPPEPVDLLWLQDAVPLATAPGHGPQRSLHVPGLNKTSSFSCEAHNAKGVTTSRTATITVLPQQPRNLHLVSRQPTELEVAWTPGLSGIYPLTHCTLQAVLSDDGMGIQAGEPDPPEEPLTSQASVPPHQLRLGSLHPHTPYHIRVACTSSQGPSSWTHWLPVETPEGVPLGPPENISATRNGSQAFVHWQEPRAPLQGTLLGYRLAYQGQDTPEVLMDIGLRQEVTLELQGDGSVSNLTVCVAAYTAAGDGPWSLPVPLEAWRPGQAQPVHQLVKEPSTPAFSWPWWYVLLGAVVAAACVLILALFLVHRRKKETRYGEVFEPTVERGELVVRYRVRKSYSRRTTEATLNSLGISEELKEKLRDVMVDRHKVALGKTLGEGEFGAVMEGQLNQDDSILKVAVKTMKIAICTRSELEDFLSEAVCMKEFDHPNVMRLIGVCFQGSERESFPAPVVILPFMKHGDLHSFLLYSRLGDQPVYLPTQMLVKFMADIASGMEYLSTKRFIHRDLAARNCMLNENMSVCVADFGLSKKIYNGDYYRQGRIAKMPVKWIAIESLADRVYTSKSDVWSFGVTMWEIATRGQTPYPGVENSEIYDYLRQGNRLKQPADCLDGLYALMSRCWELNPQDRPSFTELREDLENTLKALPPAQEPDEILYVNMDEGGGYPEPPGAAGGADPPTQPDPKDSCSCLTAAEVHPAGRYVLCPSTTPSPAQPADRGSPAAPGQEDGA
Protocol: (§1) LanthaScreen® Eu Kinase Binding assays were conducted at Life Technologies using the manufacturer's specifications for each kinase indicated.
(§2) Briefly, the principle behind this assay is based upon the binding and displacement of an Alexa Fluor 647-labeled tracer to the kinase of interest. Binding of the tracer to the kinase is detected using an EU-labeled anti-tag antibody. Simultaneous binding of both the tracer and antibody to the kinase gives rise to a FRET-signal. Binding of an inhibitor to the kinase competes for binding with the tracer, resulting in a loss of FRET-signal.
(§3) A given compound was diluted in DMSO to make a stock compound solution. The stock compound solution was serially diluted over eight steps in DMSO. Each diluted compound solution in DMSO was diluted in kinase buffer. Afterwards four kinds of working solution were prepared. First, Tracer-Working solution consists of Tracer 236 and Kinase Buffer. Second, Axl, Mer, Tyro3 or Met/anti-GST-AB-Working solution contained one of the kinases Axl, and Mer or anti-GST-AB (=anti glutathione-S-transferase antibody) in Kinase Buffer. Third, anti-GST-AB-Working solution was made with anti-GST-AB and Kinase Buffer. Last, in the DMSO-Working solution DMSO was added to Kinase Buffer to a final concentration to 3%. Each of the four kinds of working solutions were separately added to the assay plate and then incubated for 1 h at room temperature. After incubation, the assay plate was measured with respect to the FRET-Signal with the EnVision (Perkin Elmer) using the program LanthaHTRF-Assay. Data evaluation was done in the Quattro Workflow software. Kd (the equilibrium dissociation constant) values were calculated relative to vehicle (DMSO) control wells.

Mer = target: T2, Mer (Homo sapiens, UniProt Q12866); experiment: LanthaScreen Eu kinase binding assay for Mer
T2 construct: purchased Life Technologies
T2 sequence (Q12866 21-999): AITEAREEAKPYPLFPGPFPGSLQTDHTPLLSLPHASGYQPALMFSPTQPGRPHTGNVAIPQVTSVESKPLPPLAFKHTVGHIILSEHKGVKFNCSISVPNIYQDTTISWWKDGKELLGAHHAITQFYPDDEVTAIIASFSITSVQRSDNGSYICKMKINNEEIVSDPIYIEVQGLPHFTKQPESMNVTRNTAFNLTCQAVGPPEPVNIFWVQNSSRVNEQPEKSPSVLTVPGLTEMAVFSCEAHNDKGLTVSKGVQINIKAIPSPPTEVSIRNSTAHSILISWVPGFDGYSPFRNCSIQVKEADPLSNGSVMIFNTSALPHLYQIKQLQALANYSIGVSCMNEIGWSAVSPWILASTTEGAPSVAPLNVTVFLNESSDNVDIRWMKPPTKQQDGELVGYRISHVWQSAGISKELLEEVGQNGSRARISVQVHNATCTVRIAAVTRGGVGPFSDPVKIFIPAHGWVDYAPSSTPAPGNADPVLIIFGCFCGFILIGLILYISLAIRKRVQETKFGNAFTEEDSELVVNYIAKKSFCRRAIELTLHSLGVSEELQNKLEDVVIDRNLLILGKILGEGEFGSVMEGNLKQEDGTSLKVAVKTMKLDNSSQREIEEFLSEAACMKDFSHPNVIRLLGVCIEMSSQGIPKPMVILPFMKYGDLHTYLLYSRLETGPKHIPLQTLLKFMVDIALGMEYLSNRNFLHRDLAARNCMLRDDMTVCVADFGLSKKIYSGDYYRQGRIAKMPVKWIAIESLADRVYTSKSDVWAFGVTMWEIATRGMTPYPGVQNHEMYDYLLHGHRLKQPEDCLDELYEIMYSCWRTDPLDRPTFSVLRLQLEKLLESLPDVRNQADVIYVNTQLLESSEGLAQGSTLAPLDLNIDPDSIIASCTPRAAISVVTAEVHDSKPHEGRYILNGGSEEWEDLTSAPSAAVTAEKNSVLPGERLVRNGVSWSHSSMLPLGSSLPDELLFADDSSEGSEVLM
Protocol: as §1, §2, §3

[1] = read-out: Axl kinase binding activity (Kd)
[2] = read-out: Mer kinase binding activity (Kd)

| Compound | Kd (Axl; [1]) [nM] | Kd (Mer; [2]) [nM] | Kd (Axl; comparison of compounds of present invention (**) vs compounds of WO2016/166250 (*), read-out: Binding activity Axl (Kd)) [nM] | Kd (Mer; comparison of compounds of present invention (**) vs compounds of WO2016/166250 (*), read-out: Binding activity Mer (Kd)) [nM] |
| --- | --- | --- | --- | --- |
| COc1cc2nccc(Oc3ccc(NC(=O)c4nn(C5CC5)cc4OCC4CNC4)nc3)c2cc1OC [Compound 144] | 100 to 500 | 100 to 500 |  |  |
| COc1cc2nccc(Oc3ccc(NC(=O)c4nn(C5CC5)cc4NCC(F)(F)F)nc3)c2cc1OC [Compound 145] | < 100 | < 100 |  |  |
| CNCCn1cc(OCC(F)(F)F)c(C(=O)Nc2ccc(Oc3ccnc4cc(OC)c(OC)cc34)nc2)n1 [Compound 137] | ≥ 500 | ≥ 500 |  |  |
| COc1cc2nccc(Oc3ccc(NC(=O)c4nn(C5CC5)cc4NCCC(F)(F)F)nn3)c2cc1OC [Compound 146] | < 100 | < 100 |  |  |
| COc1cc2nccc(Oc3ccc(NC(=O)c4nn(CC5COC5)cc4OCC(F)(F)F)cn3)c2cc1OC [Compound 134] | < 100 | < 100 |  |  |
| COc1cc2nccc(Oc3ccc(NC(=O)c4nn(C)cc4OCC(F)(F)F)nn3)c2cc1OC [Compound 102] | < 100 | < 100 |  |  |
| COc1cc2nccc(Oc3ccc(NC(=O)c4nn(CCOC5CC5)cc4OCC(F)(F)F)cc3)c2cc1OC [Compound 118] | < 100 | < 100 |  |  |
| COCCn1cc(OCC(F)(F)F)c(C(=O)Nc2ccc(Oc3ccnc4cc(OC)c(OC)cc34)cn2)n1 [Compound 10] | < 100 | < 100 | 3.2 | 0.2 |
| COc1cc2nccc(Oc3ccc(NC(=O)c4nn(C5CC5)cc4OCC(F)F)nn3)c2cc1OC [Compound 162] | < 100 | < 100 |  |  |
| CNCCn1cc(OCC(F)(F)F)c(C(=O)Nc2ccc(Oc3ccnc4cc(OC)c(OC)cc34)c(F)c2)n1 [Compound 155] | < 100 | 100 to 500 |  |  |
| COCCOc1cn(C2CC2)nc1C(=O)Nc1ccc(Oc2ccnc3cc(OC)c(OC)cc23)cn1 [Compound 107] | < 100 | < 100 |  |  |
| COc1cc2nccc(Oc3ccc(NC(=O)c4nn(C5CCN(C)C5)cc4OCC(F)(F)F)cc3F)c2cc1OC (centres unmarked) [Compound 96] | < 100 | < 100 |  |  |
| COc1cc2nccc(Oc3ccc(NC(=O)c4nn(CC(C)C)cc4OCC(F)(F)F)nn3)c2cc1OC [Compound 124] | < 100 | < 100 |  |  |
| COCCn1cc(OCC(F)(F)F)c(C(=O)Nc2ccc(Oc3ccnc4cc(OC)c(OC)cc34)nn2)n1 [Compound 126] | < 100 | < 100 |  |  |
| COc1cc2nccc(Oc3ccc(NC(=O)c4nn(CC(C)O)cc4OCC(F)(F)F)cn3)c2cc1OC (centres unmarked) [Compound 136] | < 100 | < 100 |  |  |
| COCCn1cc(OCC(F)(F)F)c(C(=O)Nc2ccc(Oc3ccnc4cc(OC)c(OC)cc34)nc2)n1 [Compound 104] | < 100 | < 100 |  |  |
| COc1cc2nccc(Oc3ccc(NC(=O)c4nn(CCN)cc4OCC(F)(F)F)cn3)c2cc1OC [Compound 135] | ≥ 500 | ≥ 500 |  |  |
| CNCCOc1cn(C2CC2)nc1C(=O)Nc1ccc(Oc2ccnc3cc(OC)c(OC)cc23)cn1 [Compound 141] | ≥ 500 | ≥ 500 |  |  |
